Laboratory results from article PMC11859928, “Design, Synthesis, and Antiproliferative Activity of Novel Indole/1,2,4-Triazole Hybrids as Tubulin Polymerization Inhibitors” (Pharmaceuticals, 2025).
Where two headings read alike, the source gives them in different places.

Columns and labels:
[1] = test system: Non-small cell lung cancer subpanel; experiment: NCI five-dose assay, subpanel mean; assay type: cell-based, human
[2] = test system: OVCAR-3; experiment: NCI five-dose assay; assay type: cell-based, human; conditions: OVCAR-3, Ovarian cancer
[3] = test system: CAKI-1; experiment: NCI five-dose assay; assay type: cell-based, human; conditions: CAKI-1, Renal cancer
[4] = test system: NCI-H460; experiment: NCI five-dose assay; assay type: cell-based, human; conditions: NCI-H460, Non-small cell lung cancer
[5] = test system: MDA-MB-468; experiment: NCI five-dose assay; assay type: cell-based, human; conditions: Homo sapiens, MDA-MB-468, Breast cancer
[6] = molecular target: T1, tubulin (Sus scrofa, UniProt P02550+P02554); experiment: Tubulin polymerization inhibitory assay; assay type: biochemical
T1 construct: purchased Cytoskeleton Inc., Denver, CO, USA
T1 sequence (P02554 whole entry): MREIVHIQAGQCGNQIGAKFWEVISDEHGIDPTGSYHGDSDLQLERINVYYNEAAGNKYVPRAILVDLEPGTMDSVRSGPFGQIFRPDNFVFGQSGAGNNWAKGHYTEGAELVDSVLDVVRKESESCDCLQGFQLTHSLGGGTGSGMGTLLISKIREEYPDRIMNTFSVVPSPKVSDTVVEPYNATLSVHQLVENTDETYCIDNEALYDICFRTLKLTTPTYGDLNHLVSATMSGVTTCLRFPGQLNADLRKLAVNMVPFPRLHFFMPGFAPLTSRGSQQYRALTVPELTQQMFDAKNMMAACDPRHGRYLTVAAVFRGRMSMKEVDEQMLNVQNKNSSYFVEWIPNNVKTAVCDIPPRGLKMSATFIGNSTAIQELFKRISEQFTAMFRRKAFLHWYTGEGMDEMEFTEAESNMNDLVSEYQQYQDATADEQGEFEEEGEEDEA
T1 sequence (P02550 whole entry): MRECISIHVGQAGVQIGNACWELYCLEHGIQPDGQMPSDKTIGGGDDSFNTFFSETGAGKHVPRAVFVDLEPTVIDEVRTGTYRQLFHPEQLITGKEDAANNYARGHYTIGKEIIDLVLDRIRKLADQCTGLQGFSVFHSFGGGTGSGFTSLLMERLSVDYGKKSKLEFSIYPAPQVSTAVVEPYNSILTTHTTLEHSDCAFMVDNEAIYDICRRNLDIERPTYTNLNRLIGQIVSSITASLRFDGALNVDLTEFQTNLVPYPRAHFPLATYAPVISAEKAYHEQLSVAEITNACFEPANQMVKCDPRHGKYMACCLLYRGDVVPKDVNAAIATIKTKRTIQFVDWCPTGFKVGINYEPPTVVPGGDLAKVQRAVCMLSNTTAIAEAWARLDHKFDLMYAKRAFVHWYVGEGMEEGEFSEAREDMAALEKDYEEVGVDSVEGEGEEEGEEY
Text: The substances’ effects on tubulin polymerization were examined using the Tubulin Polymerization Assay Kit (Cytoskeleton Inc., Denver, CO, USA) according to the supplier’s instructions, with details described in Appendix A..
The activity of compounds on tubulin polymerization was investigated using the Tubulin Polymerization Assay Kit (Cytoskeleton Inc., Denver, CO, USA), which works via fluorescent reporter enhancement. […] Docetaxel and vincristine (Apoteket AB, Stockholm, Sweden) served as positive stabilizing and destabilizing controls. Both were used at a 3 µM concentration in PBS.

[7] = test system: OVCAR-8; experiment: NCI five-dose assay; assay type: cell-based, human; conditions: OVCAR-8, Ovarian cancer
[8] = test system: NCI-H226; experiment: NCI five-dose assay; assay type: cell-based, human; conditions: NCI-H226, Non-small cell lung cancer
[9] = test system: HS 578T; experiment: NCI five-dose assay; assay type: cell-based, human; conditions: Breast cancer
[10] = test system: EKVX; experiment: NCI five-dose assay; assay type: cell-based, human; conditions: Non-small cell lung cancer
[11] = test system: Prostate cancer subpanel; experiment: NCI five-dose assay, subpanel mean; assay type: cell-based, human
[12] = test system: HOP-62; experiment: NCI five-dose assay; assay type: cell-based, human; conditions: HOP-62, Non-small cell lung cancer
[13] = test system: K-562; experiment: NCI five-dose assay; assay type: cell-based, human; conditions: K-562, Leukemia
[14] = test system: Colon cancer subpanel; experiment: NCI five-dose assay, subpanel mean; assay type: cell-based, human
[15] = test system: SF-268; experiment: NCI five-dose assay; assay type: cell-based, human; conditions: SF-268, CNS cancer
[16] = test system: HOP-92; experiment: NCI five-dose assay; assay type: cell-based, human; conditions: HOP-92, Non-small cell lung cancer
[17] = test system: T-47D; experiment: NCI five-dose assay; assay type: cell-based, human; conditions: Breast cancer
[18] = test system: MCF7; experiment: NCI five-dose assay; assay type: cell-based, human; conditions: MCF7, Breast cancer
[19] = test system: CNS cancer subpanel; experiment: NCI five-dose assay, subpanel mean; assay type: cell-based, human
[20] = test system: OVCAR-4; experiment: NCI five-dose assay; assay type: cell-based, human; conditions: OVCAR-4, Ovarian cancer
[21] = test system: UACC-62; experiment: NCI five-dose assay; assay type: cell-based, human; conditions: UACC-62, Melanoma
[22] = test system: HCC-2998; experiment: NCI five-dose assay; assay type: cell-based, human; conditions: HCC-2998, Colon cancer
[23] = test system: Renal cancer subpanel; experiment: NCI five-dose assay, subpanel mean; assay type: cell-based, human
[24] = test system: BT-549; experiment: NCI five-dose assay; assay type: cell-based, human; conditions: BT-549, Breast cancer
[25] = test system: SNB-19; experiment: NCI five-dose assay; assay type: cell-based, human; conditions: SNB-19, CNS cancer
[26] = Homo sapiens, read-out: GI50 Conc. per Cell Lines
[27] = Homo sapiens, 48 h, read-out: LC50 (the source's name)

In the case of Cc1ccc(C(=O)CSc2nnc(-c3c[nH]c4ccccc34)n2-c2ccccc2)cc1 [Compound 6h, 2-((5-(1H-Indol-3-yl)-4-phenyl-4H-1,2,4-triazol-3-yl)thio)-1-(p-tolyl)ethenone], the GI50 ([1]; Homo sapiens, average sensitivity of all cell lines of the Non-small cell lung cancer subpanel, read-out: GI50 Subpanel MID b) is reported as 14.9 µM, the “GI50 Selectivity Ratio (MID a/MID b)” value ([1]; Non-small cell lung cancer subpanel) is reported as 1.29 and the LC50 ([2]; Homo sapiens, 48 h) is reported as over 100 µM. For the same molecule, the GI50 [2, 26] was 18 µM, the “TGI Conc. per Cell Lines” value [2] was 43.20 µM and the “TGI Conc. per Cell Lines” value [3] was 29.80 µM. For the same molecule, the LC50 ([3]; Homo sapiens, 48 h) was 59.4 µM, the GI50 [3, 26] was 14.9 µM and the CC50 [4, 27] was 63.5 µM. The GI50 [4, 26] was 15.2 µM, the “TGI Conc. per Cell Lines” value [4] was 31.00 µM and the LC50 ([5]; 48 h) was 81.3 µM. For the same molecule, the GI50 ([5]; read-out: GI50 Conc. per Cell Lines) was 12.8 µM, the “tubulin inhibitory activity, times lower than compound 7j” value [6] was 1.5 times and the “%inhibition” value ([6]; conc 0.01 (unit not given; IC50 from this curve in µg/ml)) was 5.97%. The “%inhibition” value ([6]; conc 0.1 (unit not given; IC50 from this curve in µg/ml)) was 16.8%, the “%inhibition” value ([6]; conc 1 (unit not given; IC50 from this curve in µg/ml)) was 30% and the “%inhibition” value ([6]; conc 10 (unit not given; IC50 from this curve in µg/ml)) was 58%. The “%inhibition” value ([6]; conc 100 (unit not given; IC50 from this curve in µg/ml)) was 81.2%, the IC50 ([6]; read-out: Tub. IC50±SD (converted)) was 9.51 µM and the IC50 ([6]; read-out: Tubulin Inhibitory Effect, IC50) was 9.5 ± 0.3 µM. The CC50 [7, 27] was over 100 µM, the GI50 [7, 26] was 24.5 µM and the “TGI Conc. per Cell Lines” value [7] was “˃100 µM”. The CC50 [8, 27] was 69.8 µM, the GI50 [8, 26] was 9.22 µM and the “TGI Conc. per Cell Lines” value [8] was 26.10 µM. The “TGI Conc. per Cell Lines” value [9] was 56.30 µM, the LC50 ([9]; Homo sapiens, 48 h) was over 100 µM and the GI50 [9, 26] was 14.1 µM. For the same molecule, the CC50 [10, 27] was over 100 µM, the GI50 [10, 26] was 19 µM and the “TGI Conc. per Cell Lines” value [10] was 98.90 µM. The GI50 ([11]; Homo sapiens, average sensitivity of all cell lines of the Prostate cancer subpanel, read-out: GI50 Subpanel MID b) was 8.42 µM, the “GI50 Selectivity Ratio (MID a/MID b)” value ([11]; Prostate cancer subpanel) was 2.29 and the “TGI Conc. per Cell Lines” value [12] was 35.90 µM. It also gave a CC50 [12, 27] of 80 µM, a GI50 [12, 26] of 16.1 µM and a CC50 ([13]; Homo sapiens, K562, 48 h, read-out: LC50 (the source's name)) of over 100 µM. For the same molecule, the GI50 ([13]; Homo sapiens, K562, read-out: GI50 Conc. per Cell Lines) was 22.1 µM, the “TGI Conc. per Cell Lines” value [13] was “˃100 µM” and the “GI50 Selectivity Ratio (MID a/MID b)” value ([14]; Colon cancer subpanel) was 0.76. The GI50 ([14]; Homo sapiens, average sensitivity of all cell lines of the Colon cancer subpanel, read-out: GI50 Subpanel MID b) was 25.4 µM, the CC50 [15, 27] was over 100 µM and the GI50 [15, 26] was 24.2 µM. For the same molecule, the “TGI Conc. per Cell Lines” value [15] was 78.90 µM, the “TGI Conc. per Cell Lines” value [16] was 34.70 µM and the CC50 [16, 27] was 82.1 µM. The GI50 [16, 26] was 14.7 µM, the “TGI Conc. per Cell Lines” value [17] was “˃100 µM” and the LC50 (concentration killing 50% of cells) ([17]; Homo sapiens, T47D, 48 h) was over 100 µM. It also gave a GI50 ([17]; Homo sapiens, T47D, read-out: GI50 Conc. per Cell Lines) of 24.9 µM, an LC50 ([18]; Homo sapiens, 48 h) of 98.1 µM and a GI50 [18, 26] of 15.7 µM. The “TGI Conc. per Cell Lines” value [18] was 39.20 µM, the “GI50 Selectivity Ratio (MID a/MID b)” value ([19]; CNS cancer subpanel) was 1.11 and the GI50 ([19]; Homo sapiens, average sensitivity of all cell lines of the CNS cancer subpanel, read-out: GI50 Subpanel MID b) was 17.4 µM. For the same molecule, the LC50 ([20]; Homo sapiens, 48 h) was over 100 µM, the GI50 [20, 26] was 14.5 µM and the “TGI Conc. per Cell Lines” value [20] was 41.50 µM. The CC50 [21, 27] was 95.1 µM, the GI50 [21, 26] was 15.3 µM and the “TGI Conc. per Cell Lines” value [21] was 38.10 µM. For the same molecule, the “TGI Conc. per Cell Lines” value [22] was 51.70 µM, the CC50 [22, 27] was over 100 µM and the GI50 [22, 26] was 20 µM. The GI50 ([23]; Homo sapiens, average sensitivity of all cell lines of the Renal cancer subpanel, read-out: GI50 Subpanel MID b) was 17 µM, the “GI50 Selectivity Ratio (MID a/MID b)” value ([23]; Renal cancer subpanel) was 1.13 and the “TGI Conc. per Cell Lines” value [24] was 46.70 µM. It also gave a CC50 [24, 27] of 87.2 µM, a GI50 [24, 26] of 25.1 µM and a CC50 [25, 27] of 75.3 µM. For the same molecule, the GI50 [25, 26] was 15.8 µM and the “TGI Conc. per Cell Lines” value [25] was 34.50 µM.
